Measurements taken from US20050058733A1, “Health food products” (Daicho Kikaku Incorporated Company, priority 2001, published 2005).

Key:
[1] = test system: patients with muscle disorders that occurred with aging; experiment: tablets given to aged patients with muscle disorders (walking difficulties, proctoptosia, backaches, limb pains); format: in vivo, human; details: single regular dose of drugs admixed with one of the substances, without curcumin
Description: In Western medicine, it has been understood that proctoptosia and leg, lumbus and arm aches are attributable only to hematogenous disorders and resultant inflammation at local sites. […] Thus, it can be understood that these disorders are attributed to insufficient communication of brain commands to local sites and therefore the hematogenous disorders and onset of inflammation are problems caused by abnormal motions of muscles due to incomplete communication of brain commands.

[2] = test system: adrenaline secretion; experiment: animal experiments using mice: secretomotory action on adrenaline, seen as blood glucose elevation; format: in vivo
Description: No studies have been conducted on the efficacy of curcumin, zingerone, or shogaol on the stimulation of adrenaline secretion.

SMILES | amelioration of proctoptosia and leg, lumbus and arm aches [1] | blood glucose levels (secretomotory action on adrenaline) [2]
C[C@H](CCC(=O)O)[C@H]1CC[C@H]2[C@@H]3[C@H](O)C[C@@H]4C[C@H](O)CC[C@]4(C)[C@H]3C[C@H](O)[C@]12C [cholic acid] | not significantly ameliorated | –
COc1cc(/C=C/C(=O)/C=C(O)/C=C/c2ccc(O)c(OC)c2)ccc1O [curcumin] | – | remarkably elevated
C[C@H](CC[C@@H](O)C(CO)CO)C1CCC2C3C(C[C@H](O)[C@@]21C)[C@@]1(C)CC[C@@H](O)CC1C[C@H]3O (some centres unmarked) [scymnol, Scymnol] | not significantly ameliorated | –
CCCCC/C=C/C(=O)CCc1ccc(O)c(OC)c1 [shogaol, (6)-shogaol] | – | remarkably elevated
COc1cc(CCC(C)=O)ccc1O [zingerone] | – | remarkably elevated
